The values below come from patent publication US20130324603A1, “PHARMACEUTICAL COMPOSITION FOR TREATING INFLAMMATION AND PAIN” (priority 2012, published 2013).

The structures appear in SMILES notation.

The test system of this assay is arachidonic acid-induced ear swelling. The assay can be described thus: topical arachidonic acid-induced ear swelling model in mice. It is filed as in vivo. Particulars: for % Inhibition of ear swelling: measured at 90 minutes, male ICR mice; for inhibition in the ear swelling induced by arachidonic acid relative to vehicle-treated group (in words): statistically significant, p<0.05. Here is the method:
The active compounds (methanesulfonylalkylnitriles, n=1-6), indomethacin (positive control), and vehicle were evaluated for anti-inflammatory activity in a topical arachidonic acid-induced ear swelling model in mice.
Methanesulfonylacetonitrile (n=1) was purchased from Aldrich. Methanesulfonylalkylnitriles, n=2-5 were prepared by a method modified from Hsi et al. (Scientia Sinica 1974, 17, 743-751) with 30% hydrogen peroxide as the oxidizing agent. 7-methanesulfonylheptanenitrile (n=6) was prepared according to Example 1. Each active compound and the positive control were dissolved in vehicle (ethanol/acetone 1:1).
Male ICR mice weighing 22±2 g were used and randomly divided; each group had 10 mice. Arachidonic Acid (0.5 mg in 20 μl of acetone:ethanol/1:1) was applied topically to the anterior and posterior surfaces of the right ear of each mice. Test substances and vehicle, as listed in Table 3 were similarly topically applied 30 min before and 15 min after arachidonic acid application. The thickness of the right ear and the left ear was measured and the difference calculated as an indication of the inflammation in the right ear. Ear swelling was measured by a Dyer model micrometer gauge at 60 and 90 minutes after arachidonic acid application as an index of inflammation. Percent inhibition was calculated according to the formula: Ic−It/Ic×100, where Ic and It refers to increase of ear thickness (mm) in control and treated mice, respectively. ANOVA and Dunnett's test were employed to ascertain significant difference between vehicle control and treated groups. Significance is set at P<0.05 level.

Setting [1] is: 375 mM in acetone:ethanol (1:1), 20 μL, 30 min before and 15 min after arachidonic acid.

In the case of `CS(=O)(=O)CCC#N` [3-methanesulfonylpropionitrile], the “inhibition in the ear swelling induced by arachidonic acid relative to vehicle-treated group (in words)” value was “significant inhibition”. The “% Inhibition of ear swelling” value under setting [1] was found to be 36%.

With `CS(=O)(=O)CCCC#N` [4-methanesulfonylbutyronitrile], the “% Inhibition of ear swelling” value under setting [1] turned out to be 15%.

As for `CS(=O)(=O)CCCCC#N` [5-methanesulfonylpentanenitrile], the “inhibition in the ear swelling induced by arachidonic acid relative to vehicle-treated group (in words)” value is recorded as “significant inhibition”. Also, the “% Inhibition of ear swelling” value under setting [1] was determined as 24%.

As to `CS(=O)(=O)CCCCCC#N` [6-methanesulfonylhexanenitrile], the “% Inhibition of ear swelling” value under setting [1] is reported as 8%.

On to `CS(=O)(=O)CCCCCCC#N` [7-methanesulfonylheptanenitrile], for which the “inhibition in the ear swelling induced by arachidonic acid relative to vehicle-treated group (in words)” value was “significant inhibition”. In addition, under setting [1], the “% Inhibition of ear swelling” value is listed as 46%.

On to `COc1ccc2c(c1)c(CC(=O)O)c(C)n2C(=O)c1ccc(Cl)cc1` [Indomethacin, reference compound], for which, under “positive control, 14 mM (0.5% w/v), 0.1 mg/20 μL”, the “% Inhibition of ear swelling” value worked out at 53%.

As to `CS(=O)(=O)CC#N` [Methanesulfonylacetonitrile, methanesulfonylacetonitrile], the “inhibition in the ear swelling induced by arachidonic acid relative to vehicle-treated group (in words)” value is “significant inhibition”. The “% Inhibition of ear swelling” value under setting [1] came to 22%.
